Paper PMC10611510, “Teicoplanin associated gene tcaA inactivation increases persister cell formation in Staphylococcus aureus” (Frontiers in Microbiology, 2023)
Converted amounts (≈) assume the structure as drawn. “Also recorded” adds a separate entry of the source. Like-named read-outs stand apart in the source and are kept apart here.

Assays:
ΔtcaA [1] = assay: Antibiotic susceptibility testing (inhibition zones); type: cell-based, Staphylococcus aureus; details: 100 fold MIC, 2 × 10^9 CFU/mL, 37°C, inhibition zones after 24–36 h; Supplementary Figure S1
ΔtcaA [2] = assay: MIC, two-fold broth microdilution (CLSI); type: cell-based; details: Staphylococcus aureus
S. aureus WT [3] = assay: microbe, parasite or virus in culture; type: cell-based, Staphylococcus aureus
MRSA MW2 = assay: Growth curve analysis; type: cell-based, Staphylococcus aureus; details: OD600, 37°C
Protocol: (§1) The overnight culture was 100 times diluted in TSB medium and a 200 μL was inoculated into a 96-well microtiter plate. The plates were incubated at 37°C with shaking at 200 rpm. At different time intervals (1–18 and 24 h), OD600 was measured using a microplate reader (Thermo Fisher, Waltham, MA, USA).

ΔtcaA [4] = assay: Growth curve analysis; type: cell-based, Staphylococcus aureus; details: OD600, 37°C
Protocol: as §1

S. aureus WT [5] = assay: Growth curve analysis; type: cell-based, Staphylococcus aureus; details: OD600, 37°C
Protocol: as §1

C-ΔtcaA = assay: Growth curve analysis; type: cell-based, Staphylococcus aureus; details: OD600, 37°C
Protocol: as §1

[6] = system: penicillin binding protein-2 (pbp2) ectopic expression; details: ref Sieradzki et al., 1998, cited from earlier work; for MIC after the increase: end value of the increase associated with pbp2 ectopic expression; for MIC before the increase: start value of the increase associated with pbp2 ectopic expression
Description: Staphylococcus aureus has two major types of resistant strains, namely, methicillin-resistant S. aureus (MRSA) and vancomycin-resistant S. aureus (VRSA). MRSA is considered the major cause of hospital and community-acquired infections ([Aqib and Rodriguez-Morales, 2021]) and is largely treated with glycopeptides. However, the emergence of teicoplanin resistance, vancomycin-intermediate S. aureus (VISA), and VRSA has made the clinical treatment unsuccessful and increased death rates across the world ([Howden et al., 2010]). S. aureus resistant to glycopeptides are a serious threat to public hea ...

ΔtcaA [7] = system: ΔtcaA
Protocol: (§2) A persistence assay was adopted from our previous protocol ([Habib et al., 2020]). The cells were grown to OD600 = 0.40 in the TSB medium. The pSD1 containing dCas9-tcaA and dCas9-tcaB were induced with ATC 100 ng/mL for 1 h, the medium was removed, and fresh TSB and antibiotic were added whereas ΔtcaA cells were challenged with antibiotic at OD600 = 0.40. After 12 h, a 200 μL sample was taken and CFU counting was performed. Each antibiotic concentration was 10 fold of MIC, and S. aureus WT and S. aureus WT-dCas9 were used as controls.

dCas9-tcaB = assay: Persister assay; details: dCas9-tcaB vs WT-dCas9 and WT; 10-fold MIC
Protocol: as §2

dCas9-tcaA = assay: Persister assay; details: dCas9-tcaA vs WT-dCas9, 10-fold MIC, CFU counting; for Surviving fraction of cells (persisters), fold relative to control: after 12 h, triplicates; for Increase in persister cells, fold relative to control: after 48 h
Protocol: as §2

ΔtcaA [8] = assay: Fluorescence microscopy of persister cell resuscitation (GFP); details: 20-fold MIC for 48 h, washed, fresh TSB 2 h at 37°C; ΔtcaA compared to WT
Protocol: Fluorescence microscopy was used to observe the persister cell resuscitation ability of the whole population. […] The cells were harvested, washed with ddH2O, and resuspended in TSB media. The cells were grown for 2 h at 37°C and the S. aureus WT and ΔtcaA were observed under the fluorescence microscope.

resistant isolates = details: ref Wang Y. et al., 2017; cited from earlier work
Description: Glycopeptide resistance in MRSA is a global problem and vancomycin- and teicoplanin-resistant strains are of major clinical relevance. Several studies have reported the emergence of teicoplanin and vancomycin resistance in S. aureus ([Wang Y. et al., 2017]; [Szymanek-Majchrzak et al., 2018]; [Wu et al., 2021]). Typically, teicoplanin and vancomycin bind to D-alanine-D-alanine subunits of the murein monomer and cross resistance could develop between teicoplanin and vancomycin ([Bakthavatchalam et al., 2019]). The cell wall thickness also contributed to the development of vancomycin and teicopla ...

ΔtcaA [9] = assay: Persister assay
Protocol: as §2

[10] = C-ΔtcaA complementary strain, 1 mg/L
[11] = ΔtcaA complementary strain, 2 mg/L

CC[C@H]1OC(=O)[C@H](C)[C@@H](O[C@H]2C[C@@](C)(OC)[C@@H](O)[C@H](C)O2)[C@H](C)[C@@H](O[C@@H]2O[C@H](C)C[C@H](N(C)C)[C@H]2O)[C@](C)(O)C[C@@H](C)CN(C)[C@H](C)[C@@H](O)[C@]1(C)O [Azithromycin]
Susceptibility of ΔtcaA (in words) (ΔtcaA [1]): did not affect
MIC (ΔtcaA [2]): ≤ 8 mg/L
Susceptibility of the isolate (in words) (S. aureus WT [3]): sensitive
MIC (S. aureus WT [3]; Staphylococcus aureus): ≤ 8 mg/L

COc1cccc(OC)c1C(=O)N[C@@H]1C(=O)N2[C@@H]1SC(C)(C)[C@@H]2C(=O)O [Methicillin]
MIC (ΔtcaA [2]): ≥ 256 mg/L
Susceptibility of the isolate (in words) (S. aureus WT [3]): resistant
MIC (S. aureus WT [3]; Staphylococcus aureus): > 512 mg/L

CN[C@H](CC(C)C)C(=O)N[C@H]1C(=O)N[C@@H](CC(N)=O)C(=O)N[C@H]2C(=O)N[C@H]3C(=O)N[C@H](C(=O)N[C@H](C(=O)O)c4cc(O)cc(O)c4-c4cc3ccc4O)[C@H](O)c3ccc(c(Cl)c3)Oc3cc2cc(c3O[C@@H]2O[C@H](CO)[C@@H](O)[C@H](O)[C@H]2O[C@H]2C[C@](C)(N)[C@H](O)[C@H](C)O2)Oc2ccc(cc2Cl)[C@H]1O [Vancomycin]
Growth in TSB with antibiotic (in words) (MRSA MW2; 1 mg/L): slow growth rates
Growth in TSB with antibiotic (in words) (MRSA MW2; 2 mg/L): did not show any growth
Growth in TSB with antibiotic (in words) (ΔtcaA [4]; 1 mg/L): fast and steady growth
Growth in TSB with antibiotic (in words) (ΔtcaA [4]; 2 mg/L): slow growth
Growth in TSB with antibiotic (in words) (S. aureus WT [5]; 1 mg/L): fast and steady growth
Growth in TSB with antibiotic (in words) (S. aureus WT [5]; 2 mg/L): slow growth
Growth in TSB with antibiotic (in words) (C-ΔtcaA; [10]): fast and steady growth
Growth in TSB with antibiotic (in words) (C-ΔtcaA; [11]): slow growth
MIC after the increase [6]: 2 mg/L (≈ 1.38 µM)
MIC before the increase [6]: 1 mg/L (≈ 0.69 µM)
Susceptibility of ΔtcaA (in words) (ΔtcaA [1]): resistance; also recorded: susceptibility was decreased
Increase in persister cells, fold (tcaA persistence assay, summary) (ΔtcaA [7]): 10–11 fold
Increase in persister cells, fold relative to control (ΔtcaA [7]): 11 fold
Persister cell formation relative to controls (in words) (dCas9-tcaB): did not induce persister cell formation
Surviving fraction of cells (persisters), fold relative to control (dCas9-tcaA): 15 fold
Increase in persister cells, fold relative to control (dCas9-tcaA): 10 fold
GFP-expressing cells after antibiotic removal (resuscitation) (ΔtcaA [8]): high number of cells expressing GFP in ΔtcaA cells compared to WT
MIC (resistant isolates): 2 mg/L (≈ 1.38 µM)
Susceptibility of the isolate (in words) (S. aureus WT [3]): resistant
MIC (S. aureus WT [3]; Staphylococcus aureus): 10 mg/L (≈ 6.9 µM)

Teicoplanin
Growth in TSB with antibiotic (in words) (MRSA MW2; 1 mg/L): slow growth rates
Growth in TSB with antibiotic (in words) (MRSA MW2; 2 mg/L): did not show any growth
Growth in TSB with antibiotic (in words) (ΔtcaA [4]; 1 mg/L): fast and steady growth
Growth in TSB with antibiotic (in words) (ΔtcaA [4]; 2 mg/L): slow growth
Growth in TSB with antibiotic (in words) (S. aureus WT [5]; 1 mg/L): fast and steady growth
Growth in TSB with antibiotic (in words) (S. aureus WT [5]; 2 mg/L): slow growth
Growth in TSB with antibiotic (in words) (C-ΔtcaA; [10]): fast and steady growth
Growth in TSB with antibiotic (in words) (C-ΔtcaA; [11]): slow growth
MIC after the increase [6]: 8 mg/L
MIC before the increase [6]: 2 mg/L
Susceptibility of ΔtcaA (in words) (ΔtcaA [1]): resistance; also recorded: susceptibility was decreased
Persister cell formation relative to controls (in words) (dCas9-tcaB): did not induce persister cell formation
Increase in persister cells, fold (tcaA persistence assay, summary) (ΔtcaA [9]; summary over dCas9-tcaA and ΔtcaA, discussion): 13–14 fold
Surviving fraction of cells (persisters), fold relative to control (ΔtcaA [9]; ΔtcaA vs WT, 10-fold MIC, after 12 h, CFU counting, triplicates): 18 fold
Increase in persister cells, fold relative to control (ΔtcaA [9]; ΔtcaA vs WT, 10-fold MIC, after 48 h, CFU counting): 14 fold
Surviving fraction of cells (persisters), fold relative to control (dCas9-tcaA): 17 fold
Increase in persister cells, fold relative to control (dCas9-tcaA): 13 fold
GFP-expressing cells after antibiotic removal (resuscitation) (ΔtcaA [8]): high number of cells expressing GFP in ΔtcaA cells compared to WT
MIC (resistant isolates): 16 mg/L
MIC (S. aureus WT [3]): 16 mg/L
Susceptibility of the isolate (in words) (S. aureus WT [3]): resistant
